Assay results taken from ChEMBL document CHEMBL1128649, “CD45 protein tyrosine phosphatase: Determination of minimal peptide length for substrate recognition and synthesis of some tyrosine-based electrophiles as potential active-site directed irreversible inhibitors” (Bioorg Med Chem Lett, 1995).
Calls of active or inactive are those of the source. The calls are words filed in the database; no cut-off is given here. Non-standard residues stand in square brackets, D forms with d. Residues, ends and D or L forms follow the SMILES beside them. *: point of attachment. pY = N[C@@H](Cc1ccc(OP(=O)(O)O)cc1)C(=O)O; Cbz = O=C(OCc1ccccc1)*

T1: Receptor-type tyrosine-protein phosphatase C (Homo sapiens) (UniProt P08575)
T1 sequence (whole entry): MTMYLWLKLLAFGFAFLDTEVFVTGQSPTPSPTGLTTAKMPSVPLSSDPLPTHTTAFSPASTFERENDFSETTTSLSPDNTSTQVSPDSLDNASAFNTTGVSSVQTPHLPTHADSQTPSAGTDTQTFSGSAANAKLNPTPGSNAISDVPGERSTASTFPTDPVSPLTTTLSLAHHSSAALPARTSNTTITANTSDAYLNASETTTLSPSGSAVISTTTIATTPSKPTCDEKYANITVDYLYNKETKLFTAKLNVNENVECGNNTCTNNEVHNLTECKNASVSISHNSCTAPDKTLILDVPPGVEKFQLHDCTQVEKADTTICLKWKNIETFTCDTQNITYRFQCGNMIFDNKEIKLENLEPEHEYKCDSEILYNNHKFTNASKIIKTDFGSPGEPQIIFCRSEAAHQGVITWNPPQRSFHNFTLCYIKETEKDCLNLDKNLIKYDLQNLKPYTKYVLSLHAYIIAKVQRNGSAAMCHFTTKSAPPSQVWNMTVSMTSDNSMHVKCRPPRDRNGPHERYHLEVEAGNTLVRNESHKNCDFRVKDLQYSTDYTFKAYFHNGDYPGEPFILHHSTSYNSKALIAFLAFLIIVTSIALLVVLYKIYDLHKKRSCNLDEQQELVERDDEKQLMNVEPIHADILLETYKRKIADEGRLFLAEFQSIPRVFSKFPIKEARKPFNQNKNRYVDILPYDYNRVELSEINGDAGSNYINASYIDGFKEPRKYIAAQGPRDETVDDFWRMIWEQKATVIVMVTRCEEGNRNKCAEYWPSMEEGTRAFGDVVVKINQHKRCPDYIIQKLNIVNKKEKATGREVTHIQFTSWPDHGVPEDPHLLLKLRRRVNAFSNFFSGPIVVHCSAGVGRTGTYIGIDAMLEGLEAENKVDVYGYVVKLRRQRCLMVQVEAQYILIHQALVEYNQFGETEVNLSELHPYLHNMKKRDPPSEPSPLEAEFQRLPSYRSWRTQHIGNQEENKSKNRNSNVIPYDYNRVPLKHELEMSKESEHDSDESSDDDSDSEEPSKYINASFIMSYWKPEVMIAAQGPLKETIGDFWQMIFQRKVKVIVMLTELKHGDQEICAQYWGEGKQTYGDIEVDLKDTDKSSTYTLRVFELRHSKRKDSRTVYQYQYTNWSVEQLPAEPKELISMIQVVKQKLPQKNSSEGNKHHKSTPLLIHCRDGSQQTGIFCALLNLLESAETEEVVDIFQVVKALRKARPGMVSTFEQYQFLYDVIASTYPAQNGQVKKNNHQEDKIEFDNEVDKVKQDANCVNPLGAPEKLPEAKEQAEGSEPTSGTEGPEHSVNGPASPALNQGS


Key:
[1] = target: T1, Receptor-type tyrosine-protein phosphatase C (Homo sapiens); assay: (§1) Kinetic constant for CD45 protein tyrosine phosphatase inhibition was evaluated using malachite green assay
[2] = target: T1, Receptor-type tyrosine-protein phosphatase C (Homo sapiens); assay: Compound was evaluated for inhibitory activity against CD45 protein tyrosine phosphatase at a concentration of 200 uM; no activity
[3] = target: T1, Receptor-type tyrosine-protein phosphatase C (Homo sapiens); assay: (§2) Kinetic constant for CD45 Protein-tyrosine phosphatase inhibition was evaluated using malachite green assay
[4] = compound: CC(=O)N[C@@H](Cc1ccccc1)C(=O)N[C@H](C(=O)N[C@@H](C)C(=O)N[C@H](C(=O)N[C@@H](CCC(=O)O)C(=O)N1CCC[C@H]1C(=O)N[C@@H](CCC(N)=O)C(=O)N[C@@H](Cc1ccc(OP(=O)(O)O)cc1)C(=O)N[C@@H](CCC(N)=O)C(=O)N1CCC[C@H]1C(=O)NCC(=O)N[C@@H](CCC(N)=O)C(=O)N[C@@H](CC(N)=O)C(=O)N[C@@H](CC(C)C)C(N)=O)[C@@H](C)O)[C@@H](C)O; assay: as §2
[5] = compound: CC(=O)N1CCC[C@H]1C(=O)N[C@@H](CCC(N)=O)C(=O)N[C@@H](Cc1ccc(OP(=O)(O)O)cc1)C(=O)N[C@@H](CCC(N)=O)C(=O)N1CCC[C@@H]1C(N)=O; assay: as §1
[6] = compound: CC(=O)N1CCC[C@H]1C(=O)N[C@@H](CCC(N)=O)C(=O)N[C@@H](Cc1ccc(OP(=O)(O)O)cc1)C(=O)N[C@@H](CCC(N)=O)C(N)=O; assay: as §1
[7] = compound: CC(=O)N[C@@H](C)C(=O)N[C@H](C(=O)N[C@@H](CCC(=O)O)C(=O)N1CCC[C@H]1C(=O)N[C@@H](CCC(N)=O)C(=O)N[C@@H](Cc1ccc(OP(=O)(O)O)cc1)C(=O)N[C@@H](CCC(N)=O)C(=O)N1CCC[C@H]1C(=O)NCC(=O)N[C@@H](CCC(N)=O)C(=O)N[C@@H](CC(N)=O)C(=O)N[C@@H](CC(C)C)C(N)=O)[C@@H](C)O; assay: as §1
[8] = compound: CC(=O)N[C@@H](CCC(=O)O)C(=O)N1CCC[C@H]1C(=O)N[C@@H](CCC(N)=O)C(=O)N[C@@H](Cc1ccc(OP(=O)(O)O)cc1)C(=O)N[C@@H](CCC(N)=O)C(=O)N1CCC[C@H]1C(=O)NCC(=O)N[C@@H](CCC(N)=O)C(=O)N[C@@H](CC(N)=O)C(=O)N[C@@H](CC(C)C)C(N)=O; assay: as §1
[9] = compound: CC(=O)N[C@@H](CCC(N)=O)C(=O)N[C@@H](Cc1ccc(OP(=O)(O)O)cc1)C(=O)N[C@@H](CCC(N)=O)C(=O)N1CCC[C@@H]1C(N)=O; assay: as §1
[10] = compound: CC(=O)N[C@@H](CCC(N)=O)C(=O)N[C@@H](Cc1ccc(OP(=O)(O)O)cc1)C(=O)N[C@@H](CCC(N)=O)C(=O)N1CCC[C@H]1C(=O)NCC(=O)N[C@@H](CCC(N)=O)C(=O)N[C@@H](CC(N)=O)C(=O)N[C@@H](CC(C)C)C(N)=O; assay: as §1
[11] = compound: CC(=O)N[C@@H](Cc1ccc(OP(=O)(O)O)cc1)C(N)=O; assay: as §1
[12] = compound: O=[N+]([O-])c1ccc(OP(=O)(O)O)cc1; assay: as §1

Row | k cat [1] | Activity [2] | Molecule | further results
1 | 3.95 s⁻¹ |  | CC(=O)N1CCC[C@H]1C(=O)N[C@@H](CCC(N)=O)C(=O)N[C@@H](Cc1ccc(OP(=O)(O)O)cc1)C(=O)N[C@@H](CCC(N)=O)C(=O)N1CCC[C@@H]1C(N)=O | 
2 |  | inactive | NC(=O)CC[C@H](NC(=O)[C@H](Cc1ccc(OC[C@@H]2CO2)cc1)NC(=O)[C@H](CCC(N)=O)NC(=O)OCc1ccccc1)C(N)=O | 
3 |  | inactive | NC(=O)[C@H](Cc1ccc(OC(=O)CCl)cc1)NC(=O)OCc1ccccc1 | 
4 | 3.95 s⁻¹ |  | O=[N+]([O-])c1ccc(OP(=O)(O)O)cc1 | 
5 |  | inactive | NC(=O)[C@H](Cc1ccc(O)cc1)NC(=O)OCc1ccccc1 | 
6 |  |  | CC(=O)N[C@@H](Cc1ccccc1)C(=O)N[C@H](C(=O)N[C@@H](C)C(=O)N[C@H](C(=O)N[C@@H](CCC(=O)O)C(=O)N1CCC[C@H]1C(=O)N[C@@H](CCC(N)=O)C(=O)N[C@@H](Cc1ccc(OP(=O)(O)O)cc1)C(=O)N[C@@H](CCC(N)=O)C(=O)N1CCC[C@H]1C(=O)NCC(=O)N[C@@H](CCC(N)=O)C(=O)N[C@@H](CC(N)=O)C(=O)N[C@@H](CC(C)C)C(N)=O)[C@@H](C)O)[C@@H](C)O (Ac-FTATEPQ[pY]QPGQNL-NH2) | k cat [3]: 3.95 s⁻¹
7 | 4.93 s⁻¹ |  | CC(=O)N[C@@H](C)C(=O)N[C@H](C(=O)N[C@@H](CCC(=O)O)C(=O)N1CCC[C@H]1C(=O)N[C@@H](CCC(N)=O)C(=O)N[C@@H](Cc1ccc(OP(=O)(O)O)cc1)C(=O)N[C@@H](CCC(N)=O)C(=O)N1CCC[C@H]1C(=O)NCC(=O)N[C@@H](CCC(N)=O)C(=O)N[C@@H](CC(N)=O)C(=O)N[C@@H](CC(C)C)C(N)=O)[C@@H](C)O (Ac-ATEPQ[pY]QPGQNL-NH2) | 
8 | 4.82 s⁻¹ |  | CC(=O)N[C@@H](CCC(N)=O)C(=O)N[C@@H](Cc1ccc(OP(=O)(O)O)cc1)C(=O)N[C@@H](CCC(N)=O)C(=O)N1CCC[C@H]1C(=O)NCC(=O)N[C@@H](CCC(N)=O)C(=O)N[C@@H](CC(N)=O)C(=O)N[C@@H](CC(C)C)C(N)=O (Ac-Q[pY]QPGQNL-NH2) | 
9 |  | inactive | NC(=O)[C@H](Cc1ccc(OC[C@H]2CO2)cc1)NC(=O)OCc1ccccc1 | 
10 | 3.95 s⁻¹ |  | CC(=O)N[C@@H](Cc1ccc(OP(=O)(O)O)cc1)C(N)=O | 
11 | 3.95 s⁻¹ |  | CC(=O)N1CCC[C@H]1C(=O)N[C@@H](CCC(N)=O)C(=O)N[C@@H](Cc1ccc(OP(=O)(O)O)cc1)C(=O)N[C@@H](CCC(N)=O)C(N)=O (Ac-PQ[pY]Q-NH2) | 
12 | 3.95 s⁻¹ |  | CC(=O)N[C@@H](CCC(N)=O)C(=O)N[C@@H](Cc1ccc(OP(=O)(O)O)cc1)C(=O)N[C@@H](CCC(N)=O)C(=O)N1CCC[C@@H]1C(N)=O | 
13 |  | inactive | NC(=O)CC[C@H](NC(=O)[C@H](Cc1ccc(O)cc1)NC(=O)[C@H](CCC(N)=O)NC(=O)OCc1ccccc1)C(N)=O (Cbz-Gln-Tyr-Gln-NH2) | 
14 |  | inactive | NC(=O)[C@H](Cc1ccc(OC[C@@H]2CO2)cc1)NC(=O)OCc1ccccc1 | 
15 | 4.22 s⁻¹ |  | CC(=O)N[C@@H](CCC(=O)O)C(=O)N1CCC[C@H]1C(=O)N[C@@H](CCC(N)=O)C(=O)N[C@@H](Cc1ccc(OP(=O)(O)O)cc1)C(=O)N[C@@H](CCC(N)=O)C(=O)N1CCC[C@H]1C(=O)NCC(=O)N[C@@H](CCC(N)=O)C(=O)N[C@@H](CC(N)=O)C(=O)N[C@@H](CC(C)C)C(N)=O (Ac-EPQ[pY]QPGQNL-NH2) | 
16 |  |  | Receptor-type tyrosine-protein phosphatase C (Homo sapiens), P08575 (protein) MTMYLWLKLLAFGFAFLDTEVFVTGQSPTPSPTGLTTAKMPSVPLSSDPLPTHTTAFSPASTFERENDFSETTTSLSPDNTSTQVSPDSLDNASAFNTTGVSSVQTPHLPTHADSQTPSAGTDTQTFSGSAANAKLNPTPGSNAISDVPGERSTASTFPTDPVSPLTTTLSLAHHSSAALPARTSNTTITANTSDAYLNASETTTLSPSGSAVISTTTIATTPSKPTCDEKYANITVDYLYNKETKLFTAKLNVNENVECGNNTCTNNEVHNLTECKNASVSISHNSCTAPDKTLILDVPPGVEKFQLHDCTQVEKADTTICLKWKNIETFTCDTQNITYRFQCGNMIFDNKEIKLENLEPEHEYKCDSEILYNNHKFTNASKIIKTDFGSPGEPQIIFCRSEAAHQGVITWNPPQRSFHNFTLCYIKETEKDCLNLDKNLIKYDLQNLKPYTKYVLSLHAYIIAKVQRNGSAAMCHFTTKSAPPSQVWNMTVSMTSDNSMHVKCRPPRDRNGPHERYHLEVEAGNTLVRNESHKNCDFRVKDLQYSTDYTFKAYFHNGDYPGEPFILHHSTSYNSKALIAFLAFLIIVTSIALLVVLYKIYDLHKKRSCNLDEQQELVERDDEKQLMNVEPIHADILLETYKRKIADEGRLFLAEFQSIPRVFSKFPIKEARKPFNQNKNRYVDILPYDYNRVELSEINGDAGSNYINASYIDGFKEPRKYIAAQGPRDETVDDFWRMIWEQKATVIVMVTRCEEGNRNKCAEYWPSMEEGTRAFGDVVVKINQHKRCPDYIIQKLNIVNKKEKATGREVTHIQFTSWPDHGVPEDPHLLLKLRRRVNAFSNFFSGPIVVHCSAGVGRTGTYIGIDAMLEGLEAENKVDVYGYVVKLRRQRCLMVQVEAQYILIHQALVEYNQFGETEVNLSELHPYLHNMKKRDPPSEPSPLEAEFQRLPSYRSWRTQHIGNQEENKSKNRNSNVIPYDYNRVPLKHELEMSKESEHDSDESSDDDSDSEEPSKYINASFIMSYWKPEVMIAAQGPLKETIGDFWQMIFQRKVKVIVMLTELKHGDQEICAQYWGEGKQTYGDIEVDLKDTDKSSTYTLRVFELRHSKRKDSRTVYQYQYTNWSVEQLPAEPKELISMIQVVKQKLPQKNSSEGNKHHKSTPLLIHCRDGSQQTGIFCALLNLLESAETEEVVDIFQVVKALRKARPGMVSTFEQYQFLYDVIASTYPAQNGQVKKNNHQEDKIEFDNEVDKVKQDANCVNPLGAPEKLPEAKEQAEGSEPTSGTEGPEHSVNGPASPALNQGS | Km [4]: 278 µM; Km [5]: 278 µM; Km [6]: 278 µM; Km [7]: 143 µM; Km [8]: 102 µM; Km [9]: 278 µM; Km [10]: 172 µM; Km [11]: 278 µM; Km [12]: 278 µM

Row | Molecule | k cat [1] | Activity [2] | further results
17 | NC(=O)[C@H](Cc1ccc(OP(=O)(O)CCl)cc1)NC(=O)OCc1ccccc1 |  | inactive | 
